Experimental data reported in US20150197814A1, “EGFR AND KRAS MUTATIONS” (Genentech, Inc., priority 2005, published 2015).

Assays:
[1] = tested on: cell cycle; conditions: cited from earlier work
[2] = tested on: A431 xenografts; conditions: A431 xenografts in nude mice; cited from earlier work
[3] = tested on: HN5 xenografts; conditions: HN5 xenografts in nude mice; cited from earlier work
[4] = with paclitaxel, cisplatin, gemcitabine, and doxorubicin; cited from earlier work
[5] = tested on: H1975 tumor cell line (EGFR T790M in combination with L858R); assay: sensitivity of H1975 tumor cell line to treatment

## C#Cc1cccc(Nc2ncnc3cc(OCCOC)c(OCCOC)cc23)c1 [erlotinib]
[1]
  cell cycle effect: cell cycle arrest at G1
[2]
  growth inhibition of xenografts: marked growth inhibition
[3]
  growth inhibition of xenografts: marked growth inhibition
[4]
  interaction with chemotherapy agents: additive interaction
[5]
  response of tumor cell line to treatment: resistance
